Measured values published in patent US9481677B2, “Biaryl ether sulfonamides and their use as therapeutic agents” (XENON PHARMACEUTICALS INC., priority 2011, dated 2016).

What follows are molecules tested against Nav1.7 (Homo sapiens (Human), UniProt Q15858) (assay: Patch voltage clamp electrophysiology, block of inactivated-state Nav1.7 in HEK-293 cells). Settings: affinity for the inactivated state; HEK-293 cells with β1 subunit; held at -60 mV; read-out: NaV1.7 (IC50 class).
Assay type: cell-based
Description: Patch voltage clamp electrophysiology allows for the direct measurement and quantification of block of voltage-gated sodium channels (Nav's), and allows the determination of the time- and voltage-dependence of block which has been interpreted as differential binding to the resting, open, and inactivated states of the sodium channel (Hille, B., Journal of General Physiology (1977), 69: 497-515).
The following patch voltage clamp electrophysiology studies were performed on representative compounds of the invention using human embryonic kidney cells (HEK), permanently transfected with an expression vector containing the full-length cDNA coding for the desired human sodium channel α-subunit, grown in culture media containing 10% FBS, 1% PSG, and 0.5 mg/mL G418 at 37° C. with 5% CO2. […] Nav1.7 and Nav1.5 cDNAs (NM_002977 and AC137587; SCN5A, respectively) were stably expressed in HEK-293 cells. The β1 subunit was coexpressed only in the Nav1.7 cell line.
Sodium currents were measured using the patch clamp technique in the whole-cell configuration using either a PatchXpress automated voltage clamp or manually using an Axopatch 200B (Axon Instruments) or Model 2400 (A-M systems) amplifier. […] The pipette was filled with a solution comprised of: 5 mM NaCl, 10 mM CsCl, 120 mM CsF, 0.1 mM CaCl2, 2 mM MgCl2, 10 mM HEPES, 10 mM EGTA; and adjusted to pH 7.2 with CsOH. The external solution had the following composition: 140 mM NaCl, 5 mM KCl, 2 mM CaCl2, 1 mM MgCl2, 10 mM HEPES; and adjusted to pH 7.4 with NaOH. In some studies, the external sodium was reduced by equimolar replacement with choline. Osmolarity in the CsF internal and NaCl external solutions was adjusted to 300 mOsm/kg and 310 mOsm/kg with glucose, respectively. All recordings were performed at ambient temperature in a bath chamber with a volume of 150 μL. Control sodium currents were measured in 0.5% DMSO. Controls and representative compounds of the invention were applied to the recording chamber through a 4-pinch or 8-pinch valve bath perfusion system manufactured by ALA Scientific Instruments.
Currents were recorded at 40 kHz sampling frequency, filtered at […], and stored using a Digidata-1322A analogue/digital interface with the pClamp software (Axon Instruments). Series resistance compensation was applied (60-80%). […] All statistics in this study are given as mean±SD.
The membrane potential was maintained at a voltage where inactivation of the channel is complete (which was −60 mV for both Nav1.7 and Nav1.5). The voltage is then stepped back to a very negative (Vhold=−150 mV) voltage for 20 ms and then a test pulse is applied to quantify the compound block. […] The percent decrease in sodium current following wash-on of compound was taken as the percent block of sodium channels.
The Example numbers provided in Table 1 and Table 2 correspond to the Examples herein.

Nav1.7, sequence (Q15858 other isoform, or with tags, fused parts or gaps): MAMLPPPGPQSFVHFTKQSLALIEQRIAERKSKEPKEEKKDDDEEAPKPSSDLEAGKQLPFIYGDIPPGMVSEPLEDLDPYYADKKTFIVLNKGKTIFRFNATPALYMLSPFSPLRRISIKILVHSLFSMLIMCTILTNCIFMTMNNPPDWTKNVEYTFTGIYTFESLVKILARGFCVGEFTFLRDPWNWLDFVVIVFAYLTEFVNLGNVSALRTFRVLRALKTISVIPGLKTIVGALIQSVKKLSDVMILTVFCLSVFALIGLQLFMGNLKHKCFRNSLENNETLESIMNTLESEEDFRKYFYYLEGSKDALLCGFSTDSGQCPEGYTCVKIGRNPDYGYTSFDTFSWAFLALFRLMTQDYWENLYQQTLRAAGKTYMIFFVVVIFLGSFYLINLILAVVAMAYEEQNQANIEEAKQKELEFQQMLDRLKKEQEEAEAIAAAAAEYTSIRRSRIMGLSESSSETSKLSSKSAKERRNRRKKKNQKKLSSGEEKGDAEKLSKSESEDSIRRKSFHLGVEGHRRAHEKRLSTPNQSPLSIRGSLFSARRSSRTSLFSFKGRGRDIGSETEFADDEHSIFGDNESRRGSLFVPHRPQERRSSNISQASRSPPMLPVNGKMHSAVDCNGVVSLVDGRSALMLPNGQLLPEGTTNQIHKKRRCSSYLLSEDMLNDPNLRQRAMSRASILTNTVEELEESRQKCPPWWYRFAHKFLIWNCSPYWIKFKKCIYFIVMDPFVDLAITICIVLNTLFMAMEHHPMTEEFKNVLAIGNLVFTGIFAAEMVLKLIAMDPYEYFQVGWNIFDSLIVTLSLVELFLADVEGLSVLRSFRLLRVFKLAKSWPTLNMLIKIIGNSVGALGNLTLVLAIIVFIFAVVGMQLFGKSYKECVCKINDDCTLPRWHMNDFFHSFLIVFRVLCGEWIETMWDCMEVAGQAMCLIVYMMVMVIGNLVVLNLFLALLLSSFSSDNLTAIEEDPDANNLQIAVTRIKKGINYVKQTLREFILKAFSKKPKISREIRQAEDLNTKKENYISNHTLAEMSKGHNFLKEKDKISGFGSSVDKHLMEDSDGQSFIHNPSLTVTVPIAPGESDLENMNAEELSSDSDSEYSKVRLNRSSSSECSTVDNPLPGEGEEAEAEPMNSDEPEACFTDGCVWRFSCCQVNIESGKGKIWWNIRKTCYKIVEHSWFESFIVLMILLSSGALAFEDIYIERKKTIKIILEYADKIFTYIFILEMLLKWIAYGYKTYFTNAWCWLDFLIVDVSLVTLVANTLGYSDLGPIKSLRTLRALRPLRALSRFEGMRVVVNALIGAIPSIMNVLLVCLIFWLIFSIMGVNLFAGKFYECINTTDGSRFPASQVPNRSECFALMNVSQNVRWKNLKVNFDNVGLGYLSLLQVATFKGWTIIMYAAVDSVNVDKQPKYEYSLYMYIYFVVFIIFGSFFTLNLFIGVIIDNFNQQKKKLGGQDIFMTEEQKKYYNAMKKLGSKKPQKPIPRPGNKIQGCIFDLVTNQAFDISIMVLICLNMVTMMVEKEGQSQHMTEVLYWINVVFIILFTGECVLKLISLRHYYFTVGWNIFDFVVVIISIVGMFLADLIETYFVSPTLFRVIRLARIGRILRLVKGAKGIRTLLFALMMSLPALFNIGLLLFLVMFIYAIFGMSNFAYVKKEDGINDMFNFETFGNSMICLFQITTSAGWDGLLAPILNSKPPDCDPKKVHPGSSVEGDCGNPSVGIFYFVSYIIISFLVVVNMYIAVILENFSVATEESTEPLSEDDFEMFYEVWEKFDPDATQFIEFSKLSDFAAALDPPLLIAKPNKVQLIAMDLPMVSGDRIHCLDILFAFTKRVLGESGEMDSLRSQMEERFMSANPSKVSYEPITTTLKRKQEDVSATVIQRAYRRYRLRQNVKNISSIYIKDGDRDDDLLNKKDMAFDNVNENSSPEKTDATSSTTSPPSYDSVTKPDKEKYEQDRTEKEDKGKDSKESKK
Nav1.7, sequence (Q07699 19-218 partner): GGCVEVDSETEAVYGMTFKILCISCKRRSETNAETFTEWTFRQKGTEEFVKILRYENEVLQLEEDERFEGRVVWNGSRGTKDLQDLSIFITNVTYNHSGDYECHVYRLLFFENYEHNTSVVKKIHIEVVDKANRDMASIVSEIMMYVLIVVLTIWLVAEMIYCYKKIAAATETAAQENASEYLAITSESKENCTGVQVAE

Compound	IC50
O=C1Cc2cc(-c3cc(Cl)ccc3Oc3cc(F)c(S(=O)(=O)Nc4ncns4)cc3F)ccc2N1 [Example 77, 4-(4-chloro-2-(2-oxoindolin-5-yl)phenoxy)-2,5-difluoro-N-(1,2,4-thiadiazol-5-yl)benzenesulfonamide]	≤ 100 nM
O=c1[nH]c2ccc(-c3cc(Cl)ccc3Oc3cc(F)c(S(=O)(=O)Nc4ncns4)cc3F)cc2[nH]1 [Example 48, 4-(4-chloro-2-(2-oxo-2,3-dihydro-1H-benzo[d]imidazol-5-yl)phenoxy)-2,5-difluoro-N-(1,2,4-thiadiazol-5-yl)benzenesulfonamide]	≤ 100 nM

Second part, the molecule after the results:

IC50	Compound
1000 to 10000 nM	Cn1cnc2c(-c3cc(Cl)ccc3Oc3cc(F)c(S(=O)(=O)Nc4ncns4)cc3F)ncnc21 [Example 39, 4-(4-chloro-2-(9-methyl-9H-purin-6-yl)phenoxy)-2,5-difluoro-N-(1,2,4-thiadiazol-5-yl)benzenesulfonamide]
100 to 1000 nM	O=c1[nH]cc(-c2cc(Cl)ccc2Oc2cc(F)c(S(=O)(=O)Nc3ncns3)cc2F)n2cncc12 [Example 35, 4-(4-chloro-2-(8-oxo-7,8-dihydroimidazo[1,5-a]pyrazin-5-yl)phenoxy)-2,5-difluoro-N-(1,2,4-thiadiazol-5-yl)benzenesulfonamide]
≤ 100 nM	O=C1Cc2ccc(-c3cc(Cl)ccc3Oc3cc(F)c(S(=O)(=O)Nc4ncns4)cc3F)cc2N1 [Example 55, 4-(4-chloro-2-(2-oxoindolin-6-yl)phenoxy)-2,5-difluoro-N-(1,2,4-thiadiazol-5-yl)benzenesulfonamide]
